Experimental data taken from PubChem BioAssay AID248 (DTP/NCI, 2004).
Inconclusive results and toxic doses are left out.

Test system: L1210 leukemia ip in BDF1 mice, survival T/C
Assay: NCI In Vivo Anticancer Drug Screen. Data for tumor model L1210 Leukemia (intraperitoneal) in B6D2F1 (BDF1) mice
Settings: endpoint: mean survival time, higher = longer survival
Outline: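 Read-out is survival time, reported as the treated-group measurement over the vehicle-control measurement.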

[1] = dose: 100.0 mg/kg/injection, schedule: Q01DX009 (ip), vehicle: saline
[2] = dose: 200.0 mg/kg/injection, schedule: Q01DX009 (ip), vehicle: saline
[3] = dose: 400.0 mg/kg/injection, schedule: Q01DX009 (ip), vehicle: saline
[4] = dose: 100.0 mg/kg/injection, schedule: Q01DX001 (ip), vehicle: Klucel (hydroxypropylcellulose) (HPC)
[5] = dose: 200.0 mg/kg/injection, schedule: Q01DX001 (ip), vehicle: Klucel (hydroxypropylcellulose) (HPC)
[6] = dose: 400.0 mg/kg/injection, schedule: Q01DX001 (ip), vehicle: Klucel (hydroxypropylcellulose) (HPC)
[7] = dose: 100.0 mg/kg/injection, schedule: Q01DX001 (ip), vehicle: saline
[8] = dose: 200.0 mg/kg/injection, schedule: Q01DX001 (ip), vehicle: saline
[9] = dose: 100.0 mg/kg/injection, schedule: Q01DX001 (ip), vehicle: other
[10] = dose: 200.0 mg/kg/injection, schedule: Q01DX001 (ip), vehicle: other
[11] = dose: 400.0 mg/kg/injection, schedule: Q01DX001 (ip), vehicle: other
[12] = dose: 50.0 mg/kg/injection, schedule: Q01DX001 (ip), vehicle: Klucel (hydroxypropylcellulose) (HPC)
[13] = dose: 100.0 mg/kg/injection, schedule: Q04DX002 (ip), vehicle: Klucel (hydroxypropylcellulose) (HPC)
[14] = dose: 200.0 mg/kg/injection, schedule: Q04DX002 (ip), vehicle: Klucel (hydroxypropylcellulose) (HPC)
[15] = dose: 400.0 mg/kg/injection, schedule: Q04DX002 (ip), vehicle: Klucel (hydroxypropylcellulose) (HPC)

## COc1ccc2ccccc2c1/C=N/N1CCCCC1
dose: 100.0 mg/kg/injection, schedule: Q01DX009 (ip), vehicle: saline with Tween-80
  T/C: 100 % of control
dose: 200.0 mg/kg/injection, schedule: Q01DX009 (ip), vehicle: saline with Tween-80
  T/C: 93 % of control
dose: 400.0 mg/kg/injection, schedule: Q01DX009 (ip), vehicle: saline with Tween-80
  T/C: 100 % of control

## O=C(O)C(O)C(O)C(=O)O (centres undefined)
[1]
  T/C: 106 % of control
[2]
  T/C: 104 % of control
[3]
  T/C: 102 % of control

## CS(=O)(=O)Oc1ccccc1N(S(C)(=O)=O)S(C)(=O)=O
[4]
  T/C: 107 % of control
dose: 100.0 mg/kg/injection, schedule: Q04DX003 (ip), vehicle: Klucel (hydroxypropylcellulose) (HPC)
  T/C: 107 % of control
[5]
  T/C: 110 % of control
dose: 200.0 mg/kg/injection, schedule: Q04DX003 (ip), vehicle: Klucel (hydroxypropylcellulose) (HPC)
  T/C: 107 % of control
[6]
  T/C: 104 % of control
dose: 400.0 mg/kg/injection, schedule: Q04DX003 (ip), vehicle: Klucel (hydroxypropylcellulose) (HPC)
  T/C: 102 % of control

## OCC1OC(n2ccc3c(Cl)ncnc32)C(O)C1O (centres undefined)
dose: 25.0 mg/kg/injection, schedule: Q01DX001 (ip), vehicle: saline
  T/C: 110 % of control
dose: 50.0 mg/kg/injection, schedule: Q01DX001 (ip), vehicle: saline
  T/C: 104 % of control
[7]
  T/C: 110 % of control
[8]
  T/C: 110 % of control

## CC1(Cl)CCC(C(C)(C)Cl)CC1 (centres undefined)
[7]
  T/C: 101 % of control
[8]
  T/C: 90 % of control
dose: 400.0 mg/kg/injection, schedule: Q01DX001 (ip), vehicle: saline
  T/C: 90 % of control

## O=[N+]([O-])c1ccc(OCCCCOc2ccccc2)cc1
[1]
  T/C: 110 % of control
[2]
  T/C: 96 % of control
[3]
  T/C: 92 % of control

## OCC1OC(n2cnc3c2ncn2ccnc32)C(O)C1O (centres undefined)
dose: 6.25 mg/kg/injection, schedule: Q03HX024 (ip), vehicle: saline
  T/C: 98 % of control
dose: 12.5 mg/kg/injection, schedule: Q03HX024 (ip), vehicle: saline
  T/C: 93 % of control
dose: 12.5 mg/kg/injection, schedule: Q04DX002 (ip), vehicle: saline
  T/C: 93 % of control
dose: 25.0 mg/kg/injection, schedule: Q03HX024 (ip), vehicle: saline
  T/C: 95 % of control
dose: 25.0 mg/kg/injection, schedule: Q04DX002 (ip), vehicle: saline
  T/C: 97 % of control
dose: 50.0 mg/kg/injection, schedule: Q03HX024 (ip), vehicle: saline
  T/C: 92 % of control
dose: 50.0 mg/kg/injection, schedule: Q04DX002 (ip), vehicle: saline
  T/C: 179 % of control
dose: 100.0 mg/kg/injection, schedule: Q01DX005 (ip), vehicle: saline
  T/C: 101 % of control
[1]
  T/C: 107 % of control
dose: 100.0 mg/kg/injection, schedule: Q03HX024 (ip), vehicle: saline
  T/C: 87 % of control
dose: 200.0 mg/kg/injection, schedule: Q01DX005 (ip), vehicle: saline
  T/C: 107 % of control
[2]
  T/C: 89 % of control
dose: 200.0 mg/kg/injection, schedule: Q03HX024 (ip), vehicle: saline
  T/C: 88 % of control
[3]
  T/C: 104 % of control

## CC(=O)Nc1cccc2ccccc12
dose: 100.0 mg/kg/injection, schedule: Q04DX003 (ip), vehicle: saline with Tween-80
  T/C: 97 % of control
dose: 200.0 mg/kg/injection, schedule: Q04DX003 (ip), vehicle: saline with Tween-80
  T/C: 101 % of control
dose: 400.0 mg/kg/injection, schedule: Q04DX003 (ip), vehicle: saline with Tween-80
  T/C: 100 % of control

## CCCCn1c(=O)cc(C)c2ccccc21
[9]
  T/C: 95 % of control
[10]
  T/C: 92 % of control
[11]
  T/C: 94 % of control

## Cc1ccccc1SC(Sc1ccccc1C)(Sc1ccccc1C)Sc1ccccc1C
[4]
  T/C: 98 % of control
[5]
  T/C: 88 % of control
[6]
  T/C: 95 % of control

## OC(Cc1ccc(-c2ccccc2)cc1)c1ccccc1 (centres undefined)
dose: 50.0 mg/kg/injection, schedule: Q01DX001 (ip), vehicle: saline with Tween-80
  T/C: 93 % of control
dose: 100.0 mg/kg/injection, schedule: Q01DX001 (ip), vehicle: saline with Tween-80
  T/C: 91 % of control
dose: 200.0 mg/kg/injection, schedule: Q01DX001 (ip), vehicle: saline with Tween-80
  T/C: 91 % of control

## O=C(Nc1ccc(S(=O)(=O)Nc2ccc(N=Nc3ccc(S(=O)(=O)Nc4nccs4)cc3)cc2)cc1)C(N1CC1)(N1CC1)N1CC1
dose: 15.0 mg/kg/injection, schedule: Q01DX001 (ip), vehicle: saline
  T/C: 105 % of control
dose: 30.0 mg/kg/injection, schedule: Q01DX001 (ip), vehicle: saline
  T/C: 105 % of control

## COC1OC(CCl)C(OC(=O)c2ccccc2)C(OC(=O)c2ccccc2)C1OS(=O)(=O)c1ccc(C)cc1 (centres undefined)
dose: 75.0 mg/kg/injection, schedule: Q04DX002 (ip), vehicle: Klucel (hydroxypropylcellulose) (HPC)
  T/C: 87 % of control
dose: 150.0 mg/kg/injection, schedule: Q04DX002 (ip), vehicle: Klucel (hydroxypropylcellulose) (HPC)
  T/C: 87 % of control
dose: 300.0 mg/kg/injection, schedule: Q04DX002 (ip), vehicle: Klucel (hydroxypropylcellulose) (HPC)
  T/C: 97 % of control

## CCOC(=O)CC1=C(c2ccc(OC)cc2)c2ccc(OC)cc2C1=O
[12]
  T/C: 98 % of control
[4]
  T/C: 98 % of control
[5]
  T/C: 95 % of control

## CCOC(=O)/C(C)=C\c1c(Br)cc(Br)c(N)c1Br
dose: 75.0 mg/kg/injection, schedule: Q01DX009 (ip), vehicle: Klucel (hydroxypropylcellulose) (HPC)
  T/C: 97 % of control
dose: 150.0 mg/kg/injection, schedule: Q01DX009 (ip), vehicle: Klucel (hydroxypropylcellulose) (HPC)
  T/C: 97 % of control
dose: 300.0 mg/kg/injection, schedule: Q01DX009 (ip), vehicle: Klucel (hydroxypropylcellulose) (HPC)
  T/C: 95 % of control

## CC1(C)Cc2c(OC(N)=O)cccc2O1
dose: 25.0 mg/kg/injection, schedule: Q01DX001 (ip), vehicle: Klucel (hydroxypropylcellulose) (HPC)
  T/C: 102 % of control
[12]
  T/C: 98 % of control

## O=C(OCc1ccccc1CN1CCCCC1)c1cccc(Cl)c1
[13]
  T/C: 109 % of control
[14]
  T/C: 98 % of control
[15]
  T/C: 91 % of control

## CC1=C(C)CC(C(=O)c2ccccc2)=C(C(=O)c2ccccc2)C1
[4]
  T/C: 95 % of control
[5]
  T/C: 90 % of control
[6]
  T/C: 90 % of control

## O=C(O)/C=C/c1ccncc1
[9]
  T/C: 103 % of control
[13]
  T/C: 93 % of control
dose: 100.0 mg/kg/injection, schedule: Q04DX003 (ip), vehicle: saline
  T/C: 103 % of control
[10]
  T/C: 105 % of control
[14]
  T/C: 86 % of control
dose: 200.0 mg/kg/injection, schedule: Q04DX003 (ip), vehicle: saline
  T/C: 92 % of control
[11]
  T/C: 97 % of control
[15]
  T/C: 93 % of control

## C[N+](C)(Cc1ccccc1)C1c2ccccc2-c2ccc(Cl)cc21 (centres undefined)
dose: 6.25 mg/kg/injection, schedule: Q04DX002 (ip), vehicle: saline with Tween-80
  T/C: 91 % of control
dose: 12.5 mg/kg/injection, schedule: Q04DX002 (ip), vehicle: saline with Tween-80
  T/C: 94 % of control
dose: 25.0 mg/kg/injection, schedule: Q04DX002 (ip), vehicle: saline with Tween-80
  T/C: 88 % of control

## CN(C)C(=S)[S][Pb]([S]C(=S)N(C)C)([c]1ccccc1)[c]1ccccc1
dose: 100.0 mg/kg/injection, schedule: Q01DX001 (ip), vehicle: steriod suspending solution
  T/C: 114 % of control
dose: 200.0 mg/kg/injection, schedule: Q01DX001 (ip), vehicle: steriod suspending solution
  T/C: 111 % of control
dose: 400.0 mg/kg/injection, schedule: Q01DX001 (ip), vehicle: steriod suspending solution
  T/C: 109 % of control

## CCCCC(CCC)CCC
dose: 100.0 mg/kg/injection, schedule: Q04DX002 (ip), vehicle: saline with Tween-80
  T/C: 103 % of control
dose: 200.0 mg/kg/injection, schedule: Q04DX002 (ip), vehicle: saline with Tween-80
  T/C: 94 % of control
dose: 400.0 mg/kg/injection, schedule: Q04DX002 (ip), vehicle: saline with Tween-80
  T/C: 106 % of control

## CCCCC(CC)CC1C(=O)NC(=S)NC1=O (centres undefined)
dose: 75.0 mg/kg/injection, schedule: Q01DX001 (ip), vehicle: saline
  T/C: 97 % of control
dose: 150.0 mg/kg/injection, schedule: Q01DX001 (ip), vehicle: saline
  T/C: 98 % of control

## CC(=O)Oc1ccc([N+](=O)[O-])cc1C(OC(C)=O)OC(C)=O
dose: 55.0 mg/kg/injection, schedule: Q01DX Z (ip), vehicle: methylcellulose (MC)
  T/C: 90 % of control
dose: 83.0 mg/kg/injection, schedule: Q01DX Z (ip), vehicle: methylcellulose (MC)
  T/C: 96 % of control
dose: 125.0 mg/kg/injection, schedule: Q01DX Z (ip), vehicle: methylcellulose (MC)
  T/C: 93 % of control
